Columns and labels:
Test in all cases: MTT cell viability assay
Type in all cases: cell-based
[1] = system: HT; conditions: Homo sapiens, GCB DLBCL, RPMI 10% FBS
From the text: (§1) A total of 60 cell lines representative of different cancer types were obtained from the ATCC and grown and maintained in accordance with the provided guidelines. The cell lines represented the following distinct histologies: mantle cell lymphoma (5 lines: JVM13, Rec1, Mino, JVM2, Jeko); germinal center B-cell derived (“GCB”) DLBCL (19 lines: Farage, BJAB, Ly1, Ly2, Ly7, Ly8, Ly19, HBL2, HT, Karpas422, Pfeiffer, RCK8, RL, Sci-1, Ski, SUDHL4, SUDHL7, Toledo, WSU-NHL); primary mediastinal B-cell lymphoma (“PMBL”) (3 lines: K1106, MEDB1, U2940); Burkitt lymphoma (11 lines: Daudi, CA46, EB1, EB2, EB3, Jijoye, Raji, Ramos, Namwala, BL2, BL41); Hodgkin lymphoma (3 lines: RMPI6666, L1236, L428); activated B-cell derived (“ABC”) DLBCL (6 lines: Ly3, HBL1, TMD8, Ly10, Riva, U2932); multiple myeloma (6 lines: U266, SKMM1, RPMI8226, KMS12, IM9, H929); acute myelogenous leukemia (“AML”) (2 lines: U937, KG1); acute lymphoblastic leukemia (“ALL”) (2 lines: Reh, SR); and T-cell lymphoma (3 lines: Molt4, RPMI8402, Jurkat). The cell lines were tested within six months after resuscitation.
(§2) The 3-(4,5-dimethylthiazol-2-yl)-2,5-diphenyltetrazolium bromide (MTT) cell viability assay was used to determine cell viability in response to drug treatment. Five replicates per concentration tested were carried out in serial dilutions with a total of ten concentrations with a 50% reduction in drug concentration per dilution for each plate. A total of 15 μl of MTT reagent was added to each drug-treated well and incubated for three hours in 37° C. Detergent was added to each drug-treated well and incubated overnight at room temperature without exposure to light. Absorbance was measured at 570 nm using a plate reader from Tecan Group. The IC50 concentration was determined using the publicly available ED50 plus v1.0 software program.

[2] = system: LY2; conditions: LY2, GCB DLBCL, OCI
From the text: as §1, §2

[3] = system: KMS12; conditions: KMS12, Multiple Myeloma, RPMI 10% FBS
From the text: as §1, §2

[4] = system: Jurkat; conditions: Homo sapiens, T-cell, RPMI 10% FBS
From the text: as §1, §2

[5] = system: U266; conditions: Homo sapiens, U-266; U266, Multiple Myeloma, RPMI 15% FBS
From the text: as §1, §2

[6] = system: U2940; conditions: Homo sapiens, U-2940; U2940, PMBL, RPMI 10% FBS
From the text: as §1, §2

[7] = system: LY1; conditions: LY1, GCB DLBCL, OCI
From the text: as §1, §2

[8] = system: LY8; conditions: LY8, GCB DLBCL, OCI
From the text: as §1, §2

[9] = system: JVM13; conditions: JVM13, MantleCellLymphoma, RPMI 10% FBS
From the text: as §1, §2

[10] = system: BL41; conditions: Homo sapiens, BL-41; BL41, Burkitt Lymphoma, RPMI 10% FBS
From the text: as §1, §2

[11] = system: WSUNHL; conditions: Homo sapiens, WSU-NHL, GCB DLBCL, RPMI 10% FBS
From the text: as §1, §2

[12] = system: Ramos; conditions: Homo sapiens, Burkitt Lymphoma, RPMI 10% FBS
From the text: as §1, §2

[13] = system: SKMM1; conditions: SKMM1, Multiple Myeloma, RPMI 10% FBS
From the text: as §1, §2

[14] = system: HBL1; conditions: HBL1, ABC DLBCL, RPMI 10% FBS
From the text: as §1, §2

[15] = system: Namwala; conditions: Burkitt Lymphoma, RPMI 10% FBS
From the text: as §1, §2

[16] = system: L428; conditions: Homo sapiens, L-428; L428, Hodgkin Lymphoma, RPMI 10% FBS
From the text: as §1, §2

[17] = system: Toledo; conditions: Homo sapiens, GCB DLBCL, RPMI 10% FBS
From the text: as §1, §2

[18] = system: BL2; conditions: BL2, Burkitt Lymphoma, RPMI 10% FBS
From the text: as §1, §2

[19] = system: JVM2; conditions: Homo sapiens, JVM-2; JVM2, MantleCellLymphoma, RPMI 10% FBS
From the text: as §1, §2

[20] = system: U2932; conditions: Homo sapiens; U2932, ABC DLBCL, RPMI 10% FBS
From the text: as §1, §2

[21] = system: RPMI8226; conditions: Homo sapiens, RPMI-8226; RPMI8226, Multiple Myeloma, RPMI 10% FBS
From the text: as §1, §2

[22] = system: SR; conditions: Homo sapiens, ALL, RPMI 10% FBS
From the text: as §1, §2

[23] = system: RPMI8402; conditions: Homo sapiens, RPMI 8402; RPMI8402, T-cell, RPMI 10% FBS
From the text: as §1, §2

IC50 [4]	IC50 [5]	IC50 [12]	IC50 [13]	Compound	IC50 [1]	IC50 [2]	IC50 [3]	IC50 [6]	IC50 [7]	IC50 [8]	IC50 [9]	IC50 [10]	IC50 [11]	IC50 [14]	IC50 [15]	IC50 [16]	IC50 [17]	IC50 [18]	IC50 [19]	IC50 [20]	other results
1190 nM	5600 nM	1040 nM	826 nM	Nc1cc(C(F)(F)F)c(-c2cc(N3CCOCC3)nc(N3CCOCC3)n2)cn1 [BKM120]	435 nM	2220 nM	954 nM	4450 nM	382 nM	1370 nM	933 nM	5030 nM	1260 nM	1670 nM	714 nM	1870 nM	2010 nM	722 nM	1390 nM	5360 nM	IC50 [21]: 674 nM; IC50 [22]: 807 nM; IC50 [23]: 1220 nM
33.2 nM	167 nM	51 nM	48.4 nM	Cn1c(=O)n(-c2ccc(C(C)(C)C#N)cc2)c2c3cc(-c4cnc5ccccc5c4)ccc3ncc21 [BEZ235]	2610 nM	29.7 nM	23.1 nM	35.4 nM	16.4 nM	694 nM	869 nM	11.6 nM	16.2 nM	71.7 nM	32.1 nM	14.6 nM	20.4 nM	49.9 nM	491 nM	96.1 nM	IC50 [21]: 56.9 nM; IC50 [22]: 64.2 nM; IC50 [23]: 220 nM
